Measurements: patent US20250099485A1, “COMPOSITIONS FOR PROMOTING HAIR GROWTH” (ESTETRA SRL, priority 2021, published 2025)

Assays:
Type in all cases: cell-based
[1] = test system: human epidermal keratinocytes; assay: Wound healing gene expression RT-qPCR array, keratinocytes; details: 10^−7M, 15 h, relative to ethanol control
From the text: (§1) The healing properties of E4 were investigated at the transcriptional level by studying gene expression changes by RT-qPCR. 84 genes qPCR arrays focusing on the wound healing process were used. These arrays contain genes important for the three phases of wound healing process, including extra-cellular matrix (ECM) remodeling factors, inflammatory cytokines and chemokines as well as growth factors and major signaling molecules. The changes in gene expression were interpreted in a dermo cosmetic context in order to highlight the potential benefits of the E4 towards wound healing.
After 24 h seeded on 25 cm^2 culture flasks (T25), cells were treated with E4 during 15 h. […]
The RNA concentration was determined by spectrophotometric measurement (QIAxpert, Qiagen) and the RNA quality was analyzed by capillarity electrophoresis (Agilent Bioanalyzer 2100—Agilent RNA 6000 Nano Kit). […]
The qPCR method was used to quantify the expression changes of specific markers in the cDNA populations. […]
The amplification of target genes was performed following the supplier's recommendations thanks to a “HotStart Taq DNA Polymerase” and to the use of SYBR Green as detection method. The SYBR Green is a marker emitting fluorescence once inserted between the paired bases of nucleic acids. The fluorescence intensity is thus directly proportional to the quantity of produced amplicons. […]

[2] = test system: human hair follicles (HF); assay: Hair follicle organ culture: microscopic hair cycle staging; details: vs vehicle
Experimental: 12-44 full-length frontotemporal hair follicles (HF) were obtained from four human female donors >50 years old. Donors were caucasian female subjects […], respectively (Donor 1: 12 temporal anagen HFs; Donor 2: 29; Donor 3: 44; Donor 4: 32). After microdissection from skin as described (Edelkamp et al., Methods Mol Biol, 2020, 2154:105-119; and Langan et al., Exp Dermatol, 2015, December; 24(12):903-1), HFs were placed in adequate culture medium and allowed a 24 h rest period to allow them to recover from the trauma of microdissection. Test substance (either vehicle (0.3% EtOH) or E4 at concentrations of 30 μM, 3 μM or 300 nM) was added to the medium at the end of the 24 h. Total culturing time was 5-7 days depending on the studied parameters and the experimental question. The experimental design for the hair follicle organ culture experiment is depicted in FIG. 12. Longer term culture experiments may be used to analyze the capacity to delay the onset of catagen.
Hair cycle staging and calculation of hair cycle score is indicative of hair cycle progression and anagen-catagen transition (Langan et al., Exp Dermatol, 2015). Hair cycle staging and hair cycle score was performed at the end of the culture. The hair cycle stage of each HF was determined according to several established macroscopic and microscopic parameters (Langan et al Exp Dermatol, 2015). For macroscopic hair cycle stage, bright field images of the living HFs were taken with a digital microscope (Keyence VHX 900). Microscopic hair cycle staging was determined using Ki 67/TUNEL immunohistology and Masson Fontana histochemistry. Hair cycle staging was analyzed by calculating the percentage of HFs in each hair cycle stage. Hair cycle score was determined by giving an arbitrary score to each hair cycle stage as following: anagen: 100, early catagen: 200, mid catagen: 300, late catagen: 400, dystrophic 500, with a higher score being indicative of a higher number of HFs in catagen.

[3] = test system: mouse lymphoma cell line L5178Y TK^+/−; assay: Generation of reactive oxygen species (ROS); details: up to 3000 μM, 3 h exposure, vs vehicle control
Experimental: The objective of the study was to investigate the generation of reactive oxygen species (ROS) induced by the test item, estetrol (E4), in a mouse lymphoma cell line L5178Y TK^+/−.
L5178Y TK^+/− cells in logarithmic phase of growth were plated in black 96 well cell culture plates at 1×10^4 cells in 90 μL of cell culture media. Controls and test item in triplicate were applied to the cells as a 10× concentrate in 10 μL of a 10% ethanol solution in PBS (final concentration of ethanol on plate was 1%). Cells were incubated for 3 hours at 37° C., 5% CO2, and the generation of ROS was evaluated by fluorescence with a ROS reagent: the ROS reagent was freshly prepared by dissolving one ampoule of reagent (50 μg) in 70 μL DMSO and further diluting this with 2.1 mL of pre-warmed PBS. 10 μL of ROS reagent was added to each well and the plate were shaken for 30 seconds in the dark. The plates were incubated approximately at 37° C., 5% CO2 for 1 h 30 min and fluorescence was read on a plate scanner with excitation at 492 nm and emission at 520 nm.

human dermal fibroblasts = assay: Wound healing gene expression RT-qPCR array, fibroblasts; details: 10^−7M, 15 h, relative to ethanol control
From the text: as §1
After 24 h seeded on 25 cm^2 culture flasks (T25), cells were treated with E4 during 15 h. The culture conditions were the same as the one used for the scratch test (see Example 2) and cells were treated with E4 in absence of FBS/HKGS. The cell density used for gene expression assay was lower than the ones used for the scratch tests: 15 800 cells/cm^2 for gene expression assay vs 113 636 cell/cm^2 for keratinocytes and 100 000 cells/cm^2 for fibroblasts in culture inserts for wound closure assay.
At the end of the 15 h treatment with E4 10^−7M or ethanol 0.1% used as control, total RNAs were extracted using the Qiagen RNeasy kit (Qiagen). Cells were rinsed with cold PBS and lysed in the ad hoc buffer provided in the kit. Extraction was performed according to the supplier's recommendations. The collected RNAs were stored at −80° C.
The RNA concentration was determined by spectrophotometric measurement (QIAxpert, Qiagen) and the RNA quality was analyzed by capillarity electrophoresis (Agilent Bioanalyzer 2100—Agilent RNA 6000 Nano Kit).
Reverse transcription was performed with kit “RT2 First Strand Kit” (Qiagen) from total RNA according to the manufacturer's instructions.
The qPCR method was used to quantify the expression changes of specific markers in the cDNA populations. The arrays “RT2 Profiler PCR Array human wound healing” containing specific primers for 84 target genes.
The amplification of target genes was performed following the supplier's recommendations thanks to a “HotStart Taq DNA Polymerase” and to the use of SYBR Green as detection method. The SYBR Green is a marker emitting fluorescence once inserted between the paired bases of nucleic acids. The fluorescence intensity is thus directly proportional to the quantity of produced amplicons.
The qPCRs were run using the Quantstudio7 Real-Time PCR System (Applied Biosystems) and its software (QuantStudio real time PCR Software v1.3. software, Applied Biosystems).
The data obtained for E4 treated conditions were compared to the ethanol control in both cell types. The threshold cycles (Ct) values were normalized to the mean of Ct of several housekeeping genes present on the array (indicated in the table below). The maximum Ct cut-off value was fixed at 36 cycles meaning that Ct values above 36 were not considered in the analysis.

C[C@]12CC[C@@H]3c4ccc(O)cc4CC[C@H]3[C@@H]1[C@@H](O)[C@@H](O)[C@@H]2O [E4, 1,3,5 (10)-estratrien-3,15alpha,16alpha,17beta-tetrol]
MMP2 (Matrix metalloproteinase-2) expression, FC [1]: 1.1434 Fold Change (FC)
TIMP1 (Metalloproteinase inhibitor 1) expression, FC [1]: 0.8949 Fold Change (FC)
prolonged anagen (microscopic hair cycle staging) ([2]; 300 nM): tendentially
prolonged anagen (microscopic hair cycle staging) ([2]; 3 μM): significantly
prolonged anagen (microscopic hair cycle staging) ([2]; 30 μM): tendentially
levels of ROS [3]: dose-dependent decrease
COL1A2 (Collagen alpha-2(I) chain) expression, FC (human dermal fibroblasts): 0.9445 Fold Change (FC)
CTGF (CCN family member 2) expression, FC (human dermal fibroblasts): 0.7643 Fold Change (FC)
MAPK1 (Mitogen-activated protein kinase 1) expression, FC (human dermal fibroblasts): 0.9284 Fold Change (FC)
MMP7 (Matrix metalloproteinase-7; Matrilysin) expression, FC (human dermal fibroblasts): 1.1451 Fold Change (FC)
SERPINE1 (Plasminogen activator inhibitor 1) expression, FC (human dermal fibroblasts): 0.8516 Fold Change (FC)
VTN (Vitronectin) expression, FC (human dermal fibroblasts): 0.7652 Fold Change (FC)
WNT5A (Protein Wnt-5a) expression, FC (human dermal fibroblasts): 0.8930 Fold Change (FC)
